Source: patent publication US4001272A, “Herbicidal 2-fluoro-4-halo-phenyl-4,5,6,7-tetrahydro-2H-isoindole-1,3-diones” (E. I. Du Pont de Nemours and Company, priority 1974, dated 1977)

Experiments:
Assay type in all cases: in vivo
[1] = test system: crabgrass (Digitaria sanquinalis); test: Test A: field test, percent weed control of crabgrass; settings: seven weeks after treatment
Excerpt: (§1) In test A, soybeans, peanuts, lima beans, green beans and squash were planted in a field infested with the following weed seeds: crabgrass (Digitaria sanquinalis), foxtails (Setaria spp.), barnyardgrass (Echinochloa crusgalli), pigweed (Amaranthus spp.), ragweed (Ambrosia artemisiifolia), velvetleaf (Abutilon theophrasti), purslane (Portulaca oleracea) and flower-of-an-hour (Hibiscus trionum). A 50% wettable powder formulation of 2-(4-chloro-2-fluorophenyl)-4,5,6,7-tetrahydro-2H-isoindole-1,3-dione was applied in the form of an aqueous suspension at rates of 0.125, 0.25, 0.5 and 1.0 kg/ha, each treatment replicated twice. The plots were rated for percent weed control and crop response seven weeks after treatment. Crop response was expressed on a scale of 0 = no injury to 10 = complete kill.

foxtails (Setaria spp.) = test: Test A: field test, percent weed control of foxtails; settings: seven weeks after treatment
Excerpt: as §1

[2] = test system: barnyardgrass (Echinochloa crusgalli); test: Test A: field test, percent weed control of barnyardgrass; settings: seven weeks after treatment
Excerpt: as §1

[3] = test system: ragweed (Ambrosia artemisiifolia); test: Test A: field test, percent weed control of ragweed; settings: seven weeks after treatment
Excerpt: as §1

[4] = test system: velvetleaf (Abutilon theophrasti); test: Test A: field test, percent weed control of velvetleaf; settings: seven weeks after treatment
Excerpt: as §1

[5] = test system: purslane (Portulaca oleracea); test: Test A: field test, percent weed control of purslane; settings: seven weeks after treatment
Excerpt: as §1

[6] = test system: flower-of-an-hour (Hibiscus trionum); test: Test A: field test, percent weed control of flower-of-an-hour; settings: seven weeks after treatment
Excerpt: as §1

squash = test: Test A: field test, crop response of squash; settings: seven weeks, 0 = no injury to 10 = complete kill
Excerpt: as §1

green beans = test: Test A: field test, crop response of green beans; settings: seven weeks, 0 = no injury to 10 = complete kill
Excerpt: as §1

peanuts = test: Test A: field test, crop response of peanuts; settings: seven weeks, 0 = no injury to 10 = complete kill
Excerpt: as §1

[7] = test system: ragweed (Ambrosia artemisiifolia); test: Test B: overall spray in carrot field after weed emergence, percent control of ragweed; settings: six weeks after treatment, 0.1% Tween 20
Excerpt: (§2) Test B involved a field sown to carrots and in which the following weed species emerged naturally: crabgrass (Digitaria sanquinalis), foxtails (Setaria spp.), barnyardgrass (Echinochloa crusgalli), pigweed (Amaranthus spp.), ragweed (Ambrosia artemisiifolia), velvetleaf (Abutilon theophrasti), smartweed (Polygonum spp.) and lambsquarters (Chenopodium album). Sixteen days after sowing, when all species of weeds had emerged, the plants were sprayed overall with a 50% wettable powder formulation of 2-(4-chloro-2-fluorophenyl)4,5,6,7-tetrahydro-2H-isoindole-1,3dione (Treatment I) in the form of an aqueous suspension, at rates of 0.5, 1.0, 2.0 and 4.0 kg/ha, and with 2-(4-chlorophenyl)-4,5,6,7-tetrahydro-2H-isoindole-1,3-dione (Treatment II) in the same form and at the same rates. The spray volume was 425 l/ha. The surfactant Tween 20* was added to all treatments in a concentration of 0.1% by weight. Six weeks after treatment, visual observations were made of percent weed control obtained and, for carrots, crop response.
(§3) *Tween 20 -- A trademark of ICI of America which is the reaction product of sorbitan monolaurate with an average of 20 moles of ethylene oxide.

[8] = test system: velvetleaf (Abutilon theophrasti); test: Test B: overall spray in carrot field after weed emergence, percent control of velvetleaf; settings: six weeks after treatment, 0.1% Tween 20
Excerpt: as §2, §3

[9] = test system: barnyardgrass (Echinochloa crusgalli); test: Test C: preemergence weed control in rice, barnyardgrass; settings: 29 days after treatment
Excerpt: as §1
(§4) Test C concerned preemergence weed control in rice. The field selected contained seeds of the following weed species: crabgrass (Digitaria sanquinalis), foxtail (Setaria spp.), barnyardgrass (Echinochloa crusgalli), pigweed (Amaranthus spp.), ragweed (Ambrosia artemisiifolia), velvetleaf (Abutilon theophrasti), purslane (Portulaca oleracea) and flower-of-an-hour (Hibiscus trionum). Two varieties of rice, CSM-3 and Nato, were planted at depths of both 1 and 2 cm. In addition, rice seedlings of both varieties were transplanted into the field to be treated. Immediately thereafter, the plot was treated with an aqueous suspension of 2-(4-chloro-2-fluorophenyl)-4,5,6,7-tetrahydro-2H-isoindole-1,3-dione (Treatment I) at rates of 0.125 and 0.25 kg/ha, and an aqueous suspension of 2-(4-chlorophenyl)-4,5,6,7-tetrahydro-2H-isoindole-1,3dione (Treatment II) at rates of 0.25, 0.50, 1.00 and 2.00 kg/ha. The test chemicals had been formulated as 50% wettable powders. Overall spray volume was 540 l/ha. Ratings of percent weed control obtained and crop response were made 29 days after treatment, as described for test A. The ratings are summarized in the following Table III.

[10] = test system: pigweed (Amaranthus spp.); test: Test C: preemergence weed control in rice, pigweed; settings: 29 days after treatment
Excerpt: as §1, §4

[11] = test system: ragweed (Ambrosia artemisiifolia); test: Test C: preemergence weed control in rice, ragweed; settings: 29 days after treatment
Excerpt: as §1, §4

[12] = test system: purslane (Portulaca oleracea); test: Test C: preemergence weed control in rice, purslane; settings: 29 days after treatment
Excerpt: as §1, §4

[13] = test system: flower-of-an-hour (Hibiscus trionum); test: Test C: preemergence weed control in rice, flower-of-an-hour; settings: 29 days after treatment
Excerpt: as §1, §4

## O=C1C2=C(CCCC2)C(=O)N1c1ccc(Cl)cc1F [Treatment I, 2-(4-chloro-2-fluorophenyl)-4,5,6,7-tetrahydro-2H-isoindole-1,3-dione]
[1]; 0.125 kg/ha
  % Control, Crabgrass: 60%
[1]; 0.25 kg/ha
  % Control, Crabgrass: 94%
[1]; 0.50 kg/ha
  % Control, Crabgrass: 99%
[1]; 1.00 kg/ha
  % Control, Crabgrass: 99%
Foxtails (Setaria spp.); 0.125 kg/ha
  % Control, Foxtail: 40%
Foxtails (Setaria spp.); 0.25 kg/ha
  % Control, Foxtail: 82%
Foxtails (Setaria spp.); 0.50 kg/ha
  % Control, Foxtail: 95%
Foxtails (Setaria spp.); 1.00 kg/ha
  % Control, Foxtail: 99%
[2]; 0.125 kg/ha
  % Control, Barnyardgrass: 45%
[2]; 0.25 kg/ha
  % Control, Barnyardgrass: 82%
[2]; 0.50 kg/ha
  % Control, Barnyardgrass: 98%
[2]; 1.00 kg/ha
  % Control, Barnyardgrass: 99%
[3]; 0.125 kg/ha
  % Control, Ragweed: 90%
[3]; 0.25 kg/ha
  % Control, Ragweed: 99%
[3]; 0.50 kg/ha
  % Control, Ragweed: 99%
[3]; 1.00 kg/ha
  % Control, Ragweed: 100%
[4]; 0.125 kg/ha
  % Control, Velvetleaf: 90%
[4]; 0.25 kg/ha
  % Control, Velvetleaf: 99%
[4]; 0.50 kg/ha
  % Control, Velvetleaf: 100%
[4]; 1.00 kg/ha
  % Control, Velvetleaf: 100%
[5]; 0.125 kg/ha
  % Control, Purslane: 82%
[5]; 0.25 kg/ha
  % Control, Purslane: 97%
[5]; 0.50 kg/ha
  % Control, Purslane: 100%
[5]; 1.00 kg/ha
  % Control, Purslane: 100%
[6]; 0.125 kg/ha
  % Control, Flower-of-an-Hour: 87%
[6]; 0.25 kg/ha
  % Control, Flower-of-an-Hour: 99%
[6]; 0.50 kg/ha
  % Control, Flower-of-an-Hour: 99%
[6]; 1.00 kg/ha
  % Control, Flower-of-an-Hour: 100%
squash; 0.125 kg/ha
  Crop Response, Squash: 2
squash; 0.25 kg/ha
  Crop Response, Squash: 2
squash; 0.50 kg/ha
  Crop Response, Squash: 6
squash; 1.00 kg/ha
  Crop Response, Squash: 9.5
Green beans; 0.125 kg/ha
  Crop Response, Green beans: 2
Green beans; 0.25 kg/ha
  Crop Response, Green beans: 2.5
Green beans; 0.50 kg/ha
  Crop Response, Green beans: 8
Green beans; 1.00 kg/ha
  Crop Response, Green beans: 8.5
peanuts; 0.125 kg/ha
  Crop Response, Peanuts: 0
peanuts; 0.25 kg/ha
  Crop Response, Peanuts: 0
peanuts; 0.50 kg/ha
  Crop Response, Peanuts: 2
peanuts; 1.00 kg/ha
  Crop Response, Peanuts: 3.5
[7]; 0.5 kg/ha
  % Control, Ragweed: 98%
[7]; 1.0 kg/ha
  % Control, Ragweed: > 99%
[7]; 2.0 kg/ha
  % Control, Ragweed: 100%
[7]; 4.0 kg/ha
  % Control, Ragweed: 100%
[8]; 0.5 kg/ha
  % Control, Velvetleaf: 100%
[8]; 1.0 kg/ha
  % Control, Velvetleaf: 100%
[8]; 2.0 kg/ha
  % Control, Velvetleaf: 100%
[8]; 4.0 kg/ha
  % Control, Velvetleaf: 100%
[9]; 0.125 kg/ha
  % Control, Barnyardgrass: 90%
[9]; 0.25 kg/ha
  % Control, Barnyardgrass: 99%
[10]; 0.125 kg/ha
  % Control, Pigweed: 99%
[10]; 0.25 kg/ha
  % Control, Pigweed: 100%
[11]; 0.125 kg/ha
  % Control, Ragweed: 100%
[11]; 0.25 kg/ha
  % Control, Ragweed: 100%
[12]; 0.125 kg/ha
  % Control, Purslane: 100%
[12]; 0.25 kg/ha
  % Control, Purslane: 100%
[13]; 0.125 kg/ha
  % Control, Flower-of-an-Hour: 100%
[13]; 0.25 kg/ha
  % Control, Flower-of-an-Hour: 100%

## O=C1C2=C(CCCC2)C(=O)N1c1ccc(Cl)cc1 [Treatment II, 2-(4-chlorophenyl)-4,5,6,7-tetrahydro-2H-isoindole-1,3-dione]
[7]; 0.5 kg/ha
  % Control, Ragweed: 50%
[7]; 1.0 kg/ha
  % Control, Ragweed: 70%
[7]; 2.0 kg/ha
  % Control, Ragweed: 90%
[7]; 4.0 kg/ha
  % Control, Ragweed: > 99%
[8]; 0.5 kg/ha
  % Control, Velvetleaf: 70%
[8]; 1.0 kg/ha
  % Control, Velvetleaf: 80%
[8]; 2.0 kg/ha
  % Control, Velvetleaf: 100%
[8]; 4.0 kg/ha
  % Control, Velvetleaf: 100%
[9]; 0.25 kg/ha
  % Control, Barnyardgrass: 58%
[9]; 0.50 kg/ha
  % Control, Barnyardgrass: 97%
[9]; 1.0 kg/ha
  % Control, Barnyardgrass: 99%
[9]; 2.0 kg/ha
  % Control, Barnyardgrass: 100%
[10]; 0.25 kg/ha
  % Control, Pigweed: 100%
[10]; 0.50 kg/ha
  % Control, Pigweed: 100%
[10]; 1.0 kg/ha
  % Control, Pigweed: 100%
[10]; 2.0 kg/ha
  % Control, Pigweed: 100%
[11]; 0.25 kg/ha
  % Control, Ragweed: 100%
[11]; 0.50 kg/ha
  % Control, Ragweed: 100%
[11]; 1.0 kg/ha
  % Control, Ragweed: 100%
[11]; 2.0 kg/ha
  % Control, Ragweed: 100%
[12]; 0.25 kg/ha
  % Control, Purslane: 100%
[12]; 0.50 kg/ha
  % Control, Purslane: 100%
[12]; 1.0 kg/ha
  % Control, Purslane: 100%
[12]; 2.0 kg/ha
  % Control, Purslane: 100%
[13]; 0.25 kg/ha
  % Control, Flower-of-an-Hour: 98%
[13]; 0.50 kg/ha
  % Control, Flower-of-an-Hour: 100%
[13]; 1.0 kg/ha
  % Control, Flower-of-an-Hour: 100%
[13]; 2.0 kg/ha
  % Control, Flower-of-an-Hour: 100%
